The record followed here is patent US20100203576A1, “PROCESS FOR DETERMINATION OF MICROORGANISMS' RESISTANCE TO ANTIBIOTICS” (INTELLIGENCE ARTIFICIELLE APPLICATIONS, priority 2009, published 2010).

The test system of this assay is Escherichia coli. Briefly: Antibiogram resistance of similar Escherichia coli strains recorded in the data base. More on the design: key to Resistance, MO list in data base 1 / Resistance, MO list in data base 2 / Resistance, MO list in data base 3 / Resistance, MO list in data base 4: R: significant resistance; I: average resistance; S: without resistance. To be noted: for Resistance of Escherichia coli species 1 to 4 (in words): Escherichia coli species 1 to 4, similar between 98.5 to 83.6% to the urine specimen strain; for Resistance, MO list in data base 1: Escherichia coli strain 1, similarity 98.5%; for Resistance, MO list in data base 2: Escherichia coli strain 2, similarity 97.8%; for Resistance, MO list in data base 3: Escherichia coli strain 3, similarity 84.2%; for Resistance, MO list in data base 4: Escherichia coli strain 4, similarity 83.6%. Format: cell-based.

Turning to `CC(=O)OCC1=C(C(=O)O)N2C(=O)[C@@H](NC(=O)Cc3cccs3)[C@H]2SC1` [CEPHALOTIN, cefalotin], the “Resistance of Escherichia coli species 1 to 4 (in words)” value (“Resistance … (in words)” for short) was “resistant”; the “Resistance, MO list in data base 1” value is reported as “R”; the “Resistance, MO list in data base 2” value is recorded as “R”; the “Resistance, MO list in data base 3” value is recorded as “R”. Besides, the “Resistance, MO list in data base 4” value is on record as “R”.
Turning to `O=C(O)c1cn(C2CC2)c2cc(N3CCNCC3)c(F)cc2c1=O` [CIPROFLOXACIN], the “Resistance, MO list in data base 1” value is reported as “R”; the “Resistance, MO list in data base 2” value is reported as “R”; the “Resistance, MO list in data base 4” value was “I”.
Regarding `CC1(C)S[C@@H]2[C@H](NC(=O)[C@H](N)c3ccc(O)cc3)C(=O)N2[C@H]1C(=O)O` [AMOXICILLIN, amoxicillin], the “Resistance … (in words)” value is listed as “resistant”; the “Resistance, MO list in data base 1” value is reported as “R”; the “Resistance, MO list in data base 2” value is listed as “R”; the “Resistance, MO list in data base 3” value is “R”. In addition, the “Resistance, MO list in data base 4” value is “R”.
On to `CCN1CCN(C(=O)N[C@@H](C(=O)N[C@@H]2C(=O)N3[C@@H]2SC(C)(C)[C@@H]3C(=O)O)c2ccccc2)C(=O)C1=O` [PIPERACILLIN, piperacillin], for which the “Resistance … (in words)” value was “resistant”; the “Resistance, MO list in data base 1” value was “R”; the “Resistance, MO list in data base 2” value is listed as “R”; the “Resistance, MO list in data base 3” value is “R”. The “Resistance, MO list in data base 4” value is listed as “R”.
For the compound `CO/N=C(\C(=O)N[C@@H]1C(=O)N2C(C(=O)O)=C(CSc3nc(=O)c(O)nn3C)CS[C@H]12)c1csc(N)n1` [CETRIAXONE, cetriaxone], the “Resistance … (in words)” value is reported as “not resistant”; the “Resistance, MO list in data base 1” value is reported as “S”; the “Resistance, MO list in data base 2” value is “S”; the “Resistance, MO list in data base 3” value was “S”. The “Resistance, MO list in data base 4” value is given as “S”.
Turning to gentamicin, the “Resistance … (in words)” value is “not resistant”; the “Resistance, MO list in data base 1” value is listed as “S”; the “Resistance, MO list in data base 2” value is “S”; the “Resistance, MO list in data base 3” value is reported as “S”. Further, the “Resistance, MO list in data base 4” value is reported as “S”.
